Measured values reported in the CheMixHub viscosity set.
Several values for one entry are separate records, joined by “and”; a condition that tells them apart may be missing. Identical values can stand only once. ± gives the uncertainty stated by the source.

Columns and labels:
[1] = xn = mol fraction of the nth substance listed; conditions: 101 kPa

CC(=O)O.OCCNCCO
viscosity [mPa·s]
Conditions | 293.15 K | 298.15 K | 303.15 K | 308.15 K | 313.15 K | 318.15 K | 323.15 K
100 kPa | 5750 ± 1200 | – | 2248 ± 470 | – | 1003 ± 210 | – | 491.7 ± 100
101.3 kPa | 2115 ± 140 | 1363 ± 82 | 905.4 ± 52 | 617.3 ± 34 | 431.4 ± 22 | 308.3 ± 15 | 225 ± 11

CC(=O)OCCC(C)C
viscosity
Conditions | 293.15 K | 303.15 K | 313.15 K
101 kPa | 0.86 ± 0.008 mPa·s | 0.743 ± 0.011 mPa·s and 0.7175 ± 0.0087 mPa·s and 0.7168 ± 0.0059 mPa·s | 0.642 ± 0.011 mPa·s
101.3 kPa | – | 0.6997 ± 0.07 mPa·s | –

CC(C)COCCO
Conditions | viscosity [mPa·s]
298.15 K, 101 kPa | 3.33 ± 0.1

CCC(=O)O.CCC(=O)[O-].CC[NH+](CC)CCO
101 kPa
Conditions | viscosity [mPa·s]
293.15 K | 88.32 ± 4.5
298.15 K | 66.16 ± 3.4
303.15 K | 50.6 ± 2.6
308.15 K | 39.4 ± 2
313.15 K | 31.21 ± 1.6
318.15 K | 25.1 ± 1.3
323.15 K | 20.46 ± 1

CCCC(=O)[O-].[NH3+]CCO
101 kPa
Conditions | viscosity [mPa·s]
293.15 K | 3077 ± 340
298.15 K | 2071 ± 240
303.15 K | 1434 ± 150
308.15 K | 1011 ± 100
313.15 K | 733.5 ± 69
318.15 K | 539.6 ± 48
323.15 K | 397.8 ± 34

CCCCCCCC/C=C\CCCCCCCC(=O)OCC
viscosity
Conditions | 293.15 K | 298.15 K | 303.15 K | 308.15 K | 313.15 K | 318.15 K | 323.15 K
100 kPa | 6.414 ± 0.17 mPa·s | 5.653 ± 0.15 mPa·s | 4.986 ± 0.14 mPa·s | 4.435 ± 0.12 mPa·s and 4.424 ± 0.12 mPa·s | 3.919 ± 0.11 mPa·s | 3.554 ± 0.097 mPa·s | 3.214 ± 0.087 mPa·s
101 kPa | 6.413 ± 0.068 mPa·s | 5.653 ± 0.06 mPa·s | 4.986 ± 0.053 mPa·s | 4.424 ± 0.048 mPa·s | 3.918 ± 0.042 mPa·s | 3.554 ± 0.039 mPa·s | 3.214 ± 0.035 mPa·s

CCCCCCCCCCCCn1cc[n+](C)c1.O=S(=O)([N-]S(=O)(=O)C(F)(F)F)C(F)(F)F
100 kPa
Conditions | viscosity
298 K | 135.9 ± 17 mPa·s and 150.3 ± 17 mPa·s
303 K | 102.5 ± 11 mPa·s and 114.4 ± 12 mPa·s
308 K | 79.3 ± 8.1 mPa·s and 88.7 ± 8.2 mPa·s
313 K | 62.31 ± 6 mPa·s and 70.09 ± 6 mPa·s
318 K | 49.81 ± 4.5 mPa·s and 56.18 ± 4.5 mPa·s
323 K | 39.98 ± 3.5 mPa·s and 45.26 ± 3.5 mPa·s

CCCCn1cc[n+](C)c1C.O=S(=O)([N-]S(=O)(=O)C(F)(F)F)C(F)(F)F
101.3 kPa
Conditions | viscosity [mPa·s]
293.15 K | 132.9 ± 3.2
303.15 K | 78.56 ± 1.7
308.15 K | 62.2 ± 1.3
313.15 K | 50.15 ± 1
318.15 K | 41.04 ± 0.86
323.15 K | 34.04 ± 0.71

CCCOCC(C)OCC(C)O (centres undefined)
101.33 kPa
Conditions | viscosity [mPa·s]
298.15 K | 4.001 ± 0.058
308.15 K | 2.986 ± 0.044
318.15 K | 2.271 ± 0.034

CCOP(=O)([O-])OCC.CC[N+]1(C)CCCC1
100 kPa
Conditions | viscosity [mPa·s]
293.15 K | 440.8 ± 34
298.15 K | 306.8 ± 22
303.15 K | 220 ± 16
308.15 K | 164.1 ± 11
313.15 K | 121.4 ± 8.1
318.15 K | 92.72 ± 6.1
323.15 K | 72.98 ± 4.8

CCOP(OCC)OCC
Conditions | viscosity [mPa·s]
298.15 K, 101 kPa | 0.698 ± 0.012

CN(C)CCCN
viscosity
Conditions | 293.15 K | 303.15 K | 308.15 K | 313.15 K | 318.15 K | 323.15 K
100 kPa | 1.079 ± 0.055 mPa·s | 0.8997 ± 0.045 mPa·s | – | 0.7611 ± 0.038 mPa·s | – | 0.6553 ± 0.033 mPa·s
101 kPa | – | 0.941 ± 0.011 mPa·s | 0.8773 ± 0.0087 mPa·s and 0.862 ± 0.01 mPa·s | 0.8098 ± 0.0078 mPa·s and 0.793 ± 0.01 mPa·s | 0.7531 ± 0.0073 mPa·s and 0.731 ± 0.009 mPa·s | 0.7013 ± 0.0069 mPa·s and 0.678 ± 0.008 mPa·s

O=C(O)C1CCCCC1
101 kPa
Conditions | viscosity [mPa·s]
310 K | 13.2 ± 0.2
320 K | 9.26 ± 0.15

CC(=O)OCCC(C)C + c1ccccc1
viscosity [mPa·s], [1]
Conditions | 298.15 K | 308.15 K
x1 = 0.0442 | 0.606 ± 0.005 | 0.532 ± 0.005
x1 = 0.1509 | 0.614 ± 0.005 | 0.547 ± 0.005
x1 = 0.2507 | 0.623 ± 0.005 | 0.563 ± 0.005
x1 = 0.3514 | 0.635 ± 0.005 | 0.58 ± 0.005
x1 = 0.4526 | 0.65 ± 0.005 | 0.6 ± 0.005
x1 = 0.4814 | 0.655 ± 0.005 | 0.606 ± 0.005
x1 = 0.5508 | 0.667 ± 0.005 | 0.621 ± 0.005
x1 = 0.6491 | 0.686 ± 0.005 | 0.644 ± 0.005
x1 = 0.7484 | 0.709 ± 0.005 | 0.67 ± 0.005
x1 = 0.8475 | 0.735 ± 0.005 | 0.698 ± 0.005
x1 = 0.9443 | 0.763 ± 0.005 | 0.728 ± 0.005

CCOP(OCC)OCC + c1ccncc1
[1], 298.15 K
Conditions | viscosity [mPa·s]
x1 = 0.2 | 0.792 ± 0.011
x1 = 0.4 | 0.76 ± 0.011
x1 = 0.6 | 0.738 ± 0.012
x1 = 0.8 | 0.707 ± 0.012
